For series [1], the system named is VCaP. The series is described as follows: Cytotoxicity against human VCaP cells assessed as growth inhibition at 0.16 uM after 4 days by CCK8 assay relative to control. The note with it: 96 h, time 4 day, read-out: GI. Type of series: functional.
Series [2] has as its system VCaP. The series is described as follows: Cytotoxicity against human VCaP cells assessed as growth inhibition at 0.8 uM after 4 days by CCK8 assay relative to control. Type of series: functional. The note with it: 96 h, time 4 day, read-out: GI. In general terms: Formazan colour is commonly taken as a measure of viable cells.
For series [3], the system named is VCaP. The series is described as follows: Cytotoxicity against human VCaP cells assessed as growth inhibition at 0.032 uM after 4 days by CCK8 assay relative to control. The note with it: 96 h, time 4 day, read-out: GI. Type of series: functional.
Series [4] deals with VCaP. Briefly: Cytotoxicity against human VCaP cells assessed as growth inhibition at 4 uM after 4 days by CCK8 assay relative to control. The note with it: 96 h, time 4 day, read-out: GI. Type of series: functional.
Series [5] relates to VCaP. The series is described as follows: Cytotoxicity against human VCaP cells assessed as growth inhibition after 4 days by CCK8 assay. The series is classed as functional, cell-based. The note with it: dose 0.032-4 µM, time 4.0 day.
Series [6] is described as follows: Toxicity in AB zebra fish assessed as mortality rate at 5 uM after 5 days relative to control. Also on record: species or system Danio rerio. The note with it: zebrafish, time 5 day.
Series [7] in a line: Toxicity in AB zebra fish assessed as rolled over at 5 uM after 5 days relative to control. Also on record: species or system Danio rerio. The note with it: zebrafish, 120 h, time 5 day.
A short description of series [8]: Toxicity in AB zebra fish assessed as mortality rate at 10 to 200 uM after 5 days relative to control. The note with it: zebrafish, dose 10-200 µM, time 5 day. Details: species or system Danio rerio.
Series [9] deals with VCaP. Briefly: Antitumour activity against human VcaP cells xenografted in AB zebra fish assessed as tumour growth inhibition at 5 uM after 5 days by CM-D11 dye based fluorescence microscopic method. The note with it: 120 h, read-out: TGI. (Xenograft models place foreign cells or tissue in a host animal.)
For series [10], the system named is VCaP. Briefly: Cytotoxicity against human VCaP cells assessed as growth inhibition at 0.5 uM after 4 days by CCK8 assay relative to control. Type of series: functional. The following applies: 96 h, time 4 day, read-out: GI.
Series [11] relates to VCaP. The series is described as follows: Cytotoxicity against human VCaP cells assessed as growth inhibition at 0.25 uM after 4 days by CCK8 assay relative to control. The series is classed as functional. The note with it: 96 h, time 4 day, read-out: GI.
The target in series [12] is T1, von Hippel-Lindau disease tumor suppressor/Androgen receptor (Homo sapiens) (UniProt P10275+P40337). Briefly: Protac activity at VHL3/AR in human VCAP cells assessed as induction of AR degradation at 2 uM by western blot analysis. The series is classed as cell-based. The following applies: time 2-4.5 hrs, TDE = time-dependent effect.
Series [13] can be described thus: Toxicity in AB zebra fish assessed as mortality rate at 6.25 to 25 uM after 5 days relative to control. The note with it: zebrafish, dose 6.25-25 µM, time 5 day. Details: species or system Danio rerio.
In series [14] the target is T1, von Hippel-Lindau disease tumor suppressor/Androgen receptor (Homo sapiens). The series is described as follows: Protac activity at VHL3/AR in human VCAP cells assessed as induction of AR degradation at 2 uM after 4.5 hrs by western blot analysis relative to control. The series is classed as cell-based. On the technique in general: Immunoblotting shows a protein as a band on a membrane.

Series [15] can be described thus: Cmax in Sprague-Dawley rat […] at 1 mg/kg, iv measured up to 8 hrs by HPLC-MS analysis. The series is classed as ADME, organism-based. Details: route intravenous, dose 1 mg/kg, time <=8. The note with it: in vivo.
Series [16] concerns the target T1, von Hippel-Lindau disease tumor suppressor/Androgen receptor (Homo sapiens). Briefly: Protac activity at VHL3//AR in human VCAP cells assessed as induction of AR degradation at 2 uM after 2 hrs in presence of E1 inhibitor MLN4924 by western blot analysis relative to control. Type of series: cell-based.
The test system of series [17] is VCaP. Briefly: Cytotoxicity against human VCaP cells assessed as growth inhibition at 0.125 uM after 4 days by CCK8 assay relative to control. The following applies: 96 h, time 4 day, read-out: GI. Type of series: functional.
The test system of series [18] is VCaP. Briefly: Antitumour activity against human VcaP cells xenografted in AB zebra fish assessed as tumour growth inhibition at 2.8 uM after 5 days by […] dye based fluorescence microscopic method. Type of series: functional. The note with it: 120 h, time 5 day, read-out: TGI.
Series [19] is described as follows: AUC in Sprague-Dawley rat […] at 1 mg/kg, iv measured up to 8 hrs by HPLC-MS analysis. Details: route intravenous, dose 1 mg/kg, time <=8. The series is classed as ADME, organism-based. The note with it: in vivo.
Series [20] has as its system VCaP. The series is described as follows: Cytotoxicity against human VCaP cells assessed as growth inhibition at 1 uM after 4 days by CCK8 assay relative to control. The following applies: 96 h, time 4 day, read-out: GI. The series is classed as functional.
Series [21] can be described thus: Toxicity in AB zebra fish assessed as obvious precipitation at 50 to 100 uM after 5 days. Details: species or system Danio rerio. The following applies: zebrafish, 120 h, dose 50-100 µM, time 5 day.
The target of series [22] is T1, von Hippel-Lindau disease tumor suppressor/Androgen receptor (Homo sapiens). The series is described as follows: Protac activity at VHL3/AR in human VCAP cells assessed as induction of AR degradation at 2 uM after 2 hrs by western blot analysis relative to control. Type of series: cell-based.
A short description of series [23]: Toxicity in AB zebra fish assessed as maximum non-toxic concentration after 5 days. Details: species or system Danio rerio. The following applies: zebrafish, time 5 day, read-out: MTC.
For series [24], the system named is VCaP. The series is described as follows: Antitumour activity against human VcaP cells xenografted in AB zebra fish assessed as tumour growth inhibition at 25 uM after 5 days by […] dye based fluorescence microscopic method. Type of series: functional. The note with it: 120 h, time 5 day, read-out: TGI.
Series [25] can be described thus: Half life in Sprague-Dawley rat […] at 1 mg/kg, iv measured up to 8 hrs by HPLC-MS analysis. Type of series: ADME, organism-based. The note with it: in vivo.
A short description of series [26]: Toxicity in AB zebra fish assessed as toxic phenotype at 6.25 to 25 uM after 5 days relative to control. Details: species or system Danio rerio. The following applies: zebrafish, 120 h, dose 6.25-25 µM, time 5 day.
The target in series [27] is T1, von Hippel-Lindau disease tumor suppressor/Androgen receptor (Homo sapiens). Briefly: Protac activity at VHL3/AR in human VCAP cells assessed as induction of AR degradation at 2 uM after 2 hrs in presence of proteasome inhibitor MG132 by western blot analysis relative to control. The series is classed as cell-based.
Series [28] shares this target. The series is described as follows: Protac activity at VHL3/AR in human VCAP cells assessed as induction of AR degradation at 2 uM after 2 hrs in presence of VHL-3 by western blot analysis. Type of series: cell-based.
Series [29] deals with VCaP. Briefly: Antitumour activity against human VcaP cells xenografted in AB zebra fish assessed as tumour growth inhibition at 8.3 uM after 5 days by […] dye based fluorescence microscopic method. Type of series: functional. The following applies: 120 h, time 5 day, read-out: TGI.

Calls of active or inactive are those of the source. No cut-off for these calls is given here.

T1 sequence (P10275 whole entry, looked up): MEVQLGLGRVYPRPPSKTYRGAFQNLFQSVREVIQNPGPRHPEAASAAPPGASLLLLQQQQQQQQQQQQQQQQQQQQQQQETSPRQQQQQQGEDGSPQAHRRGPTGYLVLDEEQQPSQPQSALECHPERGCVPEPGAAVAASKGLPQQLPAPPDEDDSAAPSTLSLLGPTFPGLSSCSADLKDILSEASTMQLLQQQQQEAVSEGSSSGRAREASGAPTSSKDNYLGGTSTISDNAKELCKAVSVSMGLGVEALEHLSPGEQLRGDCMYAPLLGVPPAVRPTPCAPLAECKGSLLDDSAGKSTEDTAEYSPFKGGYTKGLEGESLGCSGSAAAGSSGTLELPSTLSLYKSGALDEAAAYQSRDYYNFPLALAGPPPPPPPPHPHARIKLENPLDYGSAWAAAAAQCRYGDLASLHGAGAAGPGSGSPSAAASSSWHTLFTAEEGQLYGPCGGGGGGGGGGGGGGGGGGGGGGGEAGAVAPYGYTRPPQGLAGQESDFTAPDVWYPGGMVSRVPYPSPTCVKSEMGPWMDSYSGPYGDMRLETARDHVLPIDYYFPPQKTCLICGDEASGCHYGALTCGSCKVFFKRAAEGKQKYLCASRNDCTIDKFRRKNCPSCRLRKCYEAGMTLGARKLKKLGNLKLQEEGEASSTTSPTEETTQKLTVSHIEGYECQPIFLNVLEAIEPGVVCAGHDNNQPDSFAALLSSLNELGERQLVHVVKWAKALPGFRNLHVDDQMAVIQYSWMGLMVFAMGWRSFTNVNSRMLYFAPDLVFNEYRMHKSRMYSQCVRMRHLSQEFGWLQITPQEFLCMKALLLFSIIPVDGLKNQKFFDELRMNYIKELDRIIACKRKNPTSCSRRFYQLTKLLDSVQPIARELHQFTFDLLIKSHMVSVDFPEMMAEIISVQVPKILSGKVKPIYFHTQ
T1 sequence (P40337 whole entry, looked up): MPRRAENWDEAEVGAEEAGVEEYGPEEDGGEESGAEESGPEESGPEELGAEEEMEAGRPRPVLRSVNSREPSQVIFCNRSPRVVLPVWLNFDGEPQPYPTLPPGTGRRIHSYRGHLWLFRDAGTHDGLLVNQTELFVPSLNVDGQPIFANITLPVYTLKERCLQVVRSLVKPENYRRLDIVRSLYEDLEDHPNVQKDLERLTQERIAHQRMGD

Regarding `N#Cc1ccc(O[C@H]2C[C@H]3CC[C@@H](C2)N3C(=O)c2ccc(N3CCN(CCCCCCCCCNc4cccc5c4C(=O)N(C4CCC(=O)NC4=O)C5=O)CC3)cc2)cc1Cl` (stereo partly specified), in the series on VCaP [1], the inhibition of growth at 0.16 µM is 27.7%. The inhibition of growth at 0.8 µM in the series on VCaP [2] came to 42.5%. In the series on VCaP [3], the inhibition of growth at 0.032 µM amounted to 15.4%. Moreover, in the series with VCaP [4], the inhibition of growth at 4 µM came out at 42.1%. Further, the “growth inhibition (GI)” value in the series on VCaP [5] was “Dose-dependent effect”.

By mortality is commonly meant the percentage killed. As for `CNC(=O)c1ccc(N2C(=S)N(c3ccc(C#N)c(C(F)(F)F)c3)C(=O)C2(C)C)cc1F` [ENZALUTAMIDE], the mortality at 120 h, 5 µM in series [6] was 0%. For the same compound, in series [7], the Activity came to 10%. For the same compound, the mortality at 120 h, up to 200 µM in series [8] came to 100%. Further, in the series with VCaP [9], the inhibition in vivo at 5 µM amounted to 49%.

`N#Cc1ccc(O[C@H]2C[C@H]3CC[C@@H](C2)N3C(=O)c2ccc(N3CCN(CCCCCCCCNc4cccc5c4C(=O)N(C4CCC(=O)NC4=O)C5=O)CC3)cc2)cc1Cl` (stereo partly specified): in the series with VCaP [1], the inhibition of growth at 0.16 µM is 22.9%. Moreover, the inhibition of growth at 0.8 µM in the series on VCaP [2] is 41.5%. In the series on VCaP [3], the inhibition of growth at 0.032 µM worked out at 0.07%. The inhibition of growth at 4 µM in the series with VCaP [4] is 51.2%. Further, in the series on VCaP [5], the “growth inhibition (GI)” value was “Dose-dependent effect”.

Broadly, the Cmax is the peak of the concentration-time curve. A word on the AUC: it is the area under the concentration-time curve, a measure of exposure. A low value points to low exposure. One may read the half-life as how long it takes for the measured level to halve. A high value points to slow decline. For `Cc1ncsc1-c1ccc([C@H](C)NC(=O)[C@@H]2C[C@@H](O)CN2C(=O)[C@@H](NC(=O)COCCN2CCN(c3ncc(C(=O)N4[C@@H]5CC[C@H]4C[C@@H](Oc4ccc(C#N)c(Cl)c4)C5)cn3)CC2)C(C)(C)C)cc1`, in the series with VCaP [10], the inhibition of growth at 0.5 µM came to 66.1%. The inhibition of growth at 0.25 µM in the series on VCaP [11] is 56.4%. For the same compound, the Activity result is “Tde” in series [12], “Toxic” in [21] and “Non-Toxic” in series [26]. The mortality at 120 h in [13] turned out to be 0%. Besides, the result in [14], in series [22] and in [28] was Active. The concentration in [15] peaked (Cmax) at 14400 ng/mL. The result in series [16] and in [27] was inactive. The inhibition of growth at 0.125 µM in the series on VCaP [17] was 40.3%. Moreover, the inhibition in vivo at 2.8 µM with VCaP [18] stood at 28%. In [19], the AUC at 8 h is 1770 ng·h/mL. Further, the inhibition of growth at 1 µM in the series on VCaP [20] was determined as 69.6%. In addition, the MNTC at 120 h in series [23] is 25 µM. In addition, the inhibition in vivo at 25 µM in the series with VCaP [24] was 61%. The compound further had a half-life in series [25] of 34.2 min. The inhibition in vivo at 8.3 µM in the series with VCaP [29] worked out at 44%.

With `N#Cc1ccc(O[C@H]2C[C@H]3CC[C@@H](C2)N3C(=O)c2ccc(N3CCN(CCCCCCCNc4cccc5c4C(=O)N(C4CCC(=O)NC4=O)C5=O)CC3)cc2)cc1Cl` (stereo partly specified), in the series with VCaP [1], the inhibition of growth at 0.16 µM was found to be 15.7%. Further, the inhibition of growth at 0.8 µM in the series with VCaP [2] amounted to 42.4%. The inhibition of growth at 4 µM in the series with VCaP [4] is 47.2%. Moreover, the “growth inhibition (GI)” value in the series on VCaP [5] was “Dose-dependent effect”.

As for `N#Cc1ccc(O[C@H]2C[C@H]3CC[C@@H](C2)N3C(=O)c2cnc(N3CCN(CCCCCCCNc4cccc5c4C(=O)N(C4CCC(=O)NC4=O)C5=O)CC3)nc2)cc1Cl` (stereo partly specified), the inhibition of growth at 0.5 µM in the series with VCaP [10] was 28.3%. Also, the inhibition of growth at 0.25 µM in the series on VCaP [11] was determined as 27.4%. In addition, in the series on VCaP [17], the inhibition of growth at 0.125 µM was 26.7%. Moreover, the inhibition of growth at 1 µM in the series with VCaP [20] is 37.5%. The “growth inhibition (GI)” value in the series with VCaP [5] is “Dose-dependent effect”.

Take `N#Cc1ccc(O[C@H]2C[C@H]3CC[C@@H](C2)N3C(=O)c2ccc(N3CCN(CCCCCCCCCOc4cccc5c4C(=O)N(C4CCC(=O)NC4=O)C5=O)CC3)cc2)cc1Cl` (stereo partly specified): in the series on VCaP [2], the inhibition of growth at 0.8 µM came to 21.9%. Also, the inhibition of growth at 4 µM with VCaP [4] is 30.6%. In addition, the “growth inhibition (GI)” value in the series on VCaP [5] was “Dose-dependent effect”.

Regarding `N#Cc1ccc(O[C@H]2C[C@H]3CC[C@@H](C2)N3C(=O)c2cnc(N3CCN(CCCCNc4cccc5c4C(=O)N(C4CCC(=O)NC4=O)C5=O)CC3)nc2)cc1Cl` (stereo partly specified), the inhibition of growth at 0.5 µM with VCaP [10] was 44.4%. The inhibition of growth at 0.25 µM with VCaP [11] amounted to 29%. Besides, in the series with VCaP [17], the inhibition of growth at 0.125 µM amounted to 19%. Besides, in the series on VCaP [20], the inhibition of growth at 1 µM was determined as 50.4%. In the series on VCaP [5], the “growth inhibition (GI)” value was “Dose-dependent effect”.

The record behind these values is ChEMBL document CHEMBL4732247, “Discovery of A031 as effective proteolysis targeting chimera (PROTAC) androgen receptor (AR) degrader for the treatment of prostate cancer” (Eur J Med Chem, 2021).
